Laboratory results published in patent publication US4316839A, “Imidazodiazepine derivatives” (Hoffman-La Roche Inc., priority 1979, dated 1982).

Tests used:
[1] = target: specific benzodiazepine receptors in the cerebral cortex; assay: inhibition of the binding of tritiated diazepam at the specific benzodiazepine receptors in the cerebral cortex
Protocol: The affinity of compounds of formula I to the central benzodiazepine receptors was determined according to the method described in Life Science 20, 2101-2110 (1977) and Science 198, 849-851 (1977). According to this method, the inhibition of the binding of tritiated diazepam at the specific benzodiazepine receptors in the cerebral cortex by test substances is ascertained. The IC50 ("50% inhibiting concentration") is that concentration of the test substance which brings about a 50 percent inhibition of the specific binding of the tritiated diazepam at the specific benzodiazepine receptors in the cerebral cortex.
(§1) In the following Table there are compiled the results which have been obtained with representative compounds of formula I. The ED50 value is given for each compound listed in the Table. The ED50 is the amount of the test compound in mg/kg (p.o.) which counteracts in 50% of the animals the diazepam effect in the foregoing test. Moreover, the Table contains the IC50 value (defined hereinbefore) for all test compounds listed therein as well as details concerning the acute toxicity of certain compounds (LD50 in mg/kg following single oral administration to mice).

[2] = test system: diazepam effect in the pentetrazole test; assay: pentetrazole test: antagonism of the diazepam effect in mice; assay type: in vivo; details: for ED50: Mus musculus, po, mice, diazepam 5 mg/kg i.p. 1 hour and test compound 15 min before pentetrazole 120 mg/kg i.p.
Protocol: This property was used as a basis for the test described hereinafter which permits the determination of compounds which are capable of antagonising the central properties of 1,4-benzodiazepines which have tranquillising activity.
The antagonistic activity of the compounds tested, i.e. their ability to counteract the activity of diazepam in the pentetrazole test, is determined by counting the mice which suffer spasmodic seizures in this test.
as §1

[3] = acute toxicity following single oral administration to mice; details: mouse, in vivo
Source text: as §1

[4] = test system: central activities of diazepam; assay: antagonism of the central activities of diazepam (sleep/waking behaviour) in male albino rats; assay type: in vivo
Source text: Male albino rats (body weight about 165 g) are used for this test.

[5] = compounds of formula I with A = group (a)
[6] = 20 mg/kg i.p., then after 30 min diazepam 5 mg/kg i.v.
[7] = thieno derivatives, A = group (b)

Row | SMILES | IC50 [1, 5] [µM] | ED50 [2] [mg/kg] | further results
1 | CCOC(=O)c1ncn2c1C1C=CCN1C(=O)c1ccccc1-2 (racemic) [Example 43, ethyl (R,S)-11,13a-dihydro-9-oxo-9H-imidazo[1,5-a]pyrrolo[2,1-c][1,4]benzodiazepine-1-carboxylate] | 2.3 | 3.9 | –
2 | COC(=O)c1ncn2c1CN(C)C(=O)c1cc(F)ccc1-2 [Example 3, methyl 8-fluoro-5,6-dihydro-5-methyl-6-oxo-4H-imidazo[1,5-a][1,4]benzodiazepine-3-carboxylate] | 6 | 4.9 | –
3 | CC(C)OC(=O)c1ncn2c1CN(C)C(=O)c1cc(F)ccc1-2 [Example 4, isopropyl 8-fluoro-5,6-dihydro-5-methyl-6-oxo-4H-imidazo [1,5-a][1,4]benzodiazepine-3-carboxylate] | 3.9 | 6.6 | LD50 [3]: > 5000 mg/kg
4 | CCOC(=O)c1ncn2c1CN(C)C(=S)c1cc(F)ccc1-2 [Example 6, ethyl 8-fluoro-5,6-dihydro-5-methyl-6-thioxo-4H-imidazo[1,5-a][1,4]benzodiazepine-3-carboxylate] | 2.5 | 6.3 | –
5 | CN1Cc2c(C#N)ncn2-c2ccc(F)cc2C1=O [Example 7, 8-fluoro-5,6-dihydro-5-methyl-6-oxo-4H-imidazo[1,5-a][1,4]benzodiazepine-3-carbonitrile] | 93 | 4.2 | –
6 | CCOC(=O)c1ncn2c1CN(C)C(=O)c1c(F)cccc1-2 [Example 10, ethyl 7-fluoro-5,6-dihydro-5-methyl-6-oxo-4H-imidazo[1,5-a][1,4]benzodiazepine-3-carboxylate] | 2 | 2.1 | LD50 [3]: > 5000 mg/kg
7 | CCOC(=O)c1ncn2c1C1C=CCN1C(=O)c1c(F)cccc1-2 (stereo not drawn) [Example 11, ethyl 8-fluoro-11,13a-dihydro-9-oxo-9H-imidazo[1,5-a]pyrrolo[2,1-c][1,4]benzodiazepine-1-carboxylate] | 2.1 | 1.8 | LD50 [3]: 500 to 1000 mg/kg
8 | CCOC(=O)c1ncn2c1[C@@H]1CCCN1C(=O)c1cc(F)ccc1-2 [Example 12, ethyl (S)-7-fluoro-11,12,13,13a-tetrahydro-9-oxo-9H-imidazo[1,5-a]pyrrolo[2,1-c][1,4]benzodiazepine-1-carboxylate] | 6 | 8.9 | –
9 | CCOC(=O)c1ncn2c1CN(C)C(=O)c1c(Cl)cccc1-2 [Example 13, ethyl 7-chloro-5,6-dihydro-5-methyl-6-oxo-4H-imidazo[1,5-a][1,4]benzodiazepine-3-carboxylate] | 3 | 0.48 | –
10 | CCOC(=O)c1ncn2c1[C@@H]1CCCN1C(=O)c1c(Cl)cccc1-2 [Example 14, ethyl (S)-8-chloro-11,12,13,13a-tetrahydro-9-oxo-9H-imidazo[1,5-a]pyrrolo[2,1-c][1,4]benzodiazepine-1-carboxylate] | 1.7 | 1 | LD50 [3]: 750 to 1500 mg/kg
11 | CCOC(=O)c1ncn2c1CN(C)C(=O)c1ccccc1-2 [Example 16, ethyl 5,6-dihydro-5-methyl-6-oxo-4H-imidazo[1,5-a][1,4]benzodiazepine-3-carboxylate] | 3 | 10.9 | LD50 [3]: > 5000 mg/kg; waking of diazepam-treated animals ([4]; 5 mg/kg i.v., 5 or 15 min after diazepam 5 mg/kg i.v. or 30 min after diazepam 10 mg/kg i.p.): the animals stand up immediately and move around; behaviour after test substance alone ([4]; 20 mg/kg i.p.): the animals remain awake and show a normal behaviour; duration of waking phase [4, 6]: at least 30 minutes; symptoms after subsequent diazepam [4, 6]: in the first 2 minutes after the injection slight sedation and ataxia, but these symptoms rapidly disappear; antagonism of the central activities of diazepam ([4]; rats, overall finding): antagonises the central activities of the known 1,4-benzodiazepine derivative diazepam
12 | CN1Cc2c(C#N)ncn2-c2ccccc2C1=O [Example 18, 5,6-dihydro-5-methyl-6-oxo-4H-imidazo[1,5-a][1,4]benzodiazepine-3-carbonitrile] | 100 | 2.6 | LD50 [3]: 1250 mg/kg
13 | COC(=O)c1ncn2c1CN(C)C(=O)c1ccccc1-2 [Example 24, methyl 5,6-dihydro-5-methyl-6-oxo-4H-imidazo[1,5-a][1,4]benzodiazepine-3-carboxylate] | 9 | 13.5 | –
14 | CC(C)OC(=O)c1ncn2c1CN(C)C(=O)c1ccccc1-2 [Example 25, isopropyl 5,6-dihydro-5-methyl-6-oxo-4H-imidazo[1,5-a][1,4]benzodiazepine 3-carboxylate] | 12 | 7 | –
15 | CCOC(=O)c1ncn2c1CN(C)C(=S)c1ccccc1-2 [Example 27, ethyl 5,6-dihydro-5-methyl-6-thioxo-4H-imidazo[1,5-a][1,4]benzodiazepine-3-carboxylate] | 6 | 8.9 | –
16 | CCOC(=O)c1ncn2c1CN(C)C(=O)c1c(C)cccc1-2 [Example 28, ethyl 5,6-dihydro-5,7-dimethyl-6-oxo-4H-imidazo[1,5-a][1,4]benzodiazepine-3-carboxylate] | 5 | 7.1 | –
17 | CCOC(=O)c1ncn2c1[C@@H]1CCCN1C(=O)c1c(C)cccc1-2 [Example 29, ethyl (S)-11,12,13,13a-tetrahydro-8-methyl-9-oxo-9H-imidazo[1,5-a]pyrrolo[2,1-c]benzodiazepine-1-carboxylate] | 5 | 6.5 | –
18 | COC(=O)c1ncn2c1[C@@H]1CCCN1C(=O)c1ccccc1-2 [Example 31, methyl (S)-11,12,13,13a-tetrahydro-9-oxo-9H-imidazo[1,5-a]pyrrolo[2,1-c][1,4]benzodiazepine-1-carboxylate] | 32 | 3.5 | LD50 [3]: 2000 to 4000 mg/kg
19 | CC(C)OC(=O)c1ncn2c1[C@@H]1CCCN1C(=O)c1ccccc1-2 [Example 33, isopropyl (S)-11,12,13,13a-tetrahydro-9-oxo-9H-imidazo[1,5-a]pyrrolo[2,1-c][1,4]benzodiazepine-1-carboxylate] | 3 | 18.6 | –
20 | CCOC(=O)c1ncn2c1[C@@H]1CCCN1C(=O)c1sccc1-2 [Example 34, ethyl (S)-10,11,12,12a-tetrahydro-8-oxo-8H-imidazo[5,1-c]pyrrolo[1,2-a]thieno[3,2-e][1,4]diazepine-1-carboxylate] | – | 1.3 | IC50 [1, 7]: 0.0009 µM
21 | COC(=O)c1ncn2c1[C@@H]1CCCN1C(=O)c1sccc1-2 [Example 35, methyl (S)-10,11,12,12a-tetrahydro-8-oxo-8H-imidazo[5,1-c]pyrrolo[1,2-a]thieno[3,2-e][1,4]diazepine-1-carboxylate] | – | 0.22 | IC50 [1, 7]: 0.0021 µM
22 | CCOC(=O)c1ncn2c1CN(C)C(=O)c1sccc1-2 [Example 36, ethyl 5,6-dihydro-5-methyl-6-oxo-4H-imidazo[1,5-a]thieno[2,3-f][1,4]diazepine-3-carboxylate] | – | 12.6 | IC50 [1, 7]: 0.0011 µM
23 | COC(=O)c1ncn2c1CN(C)C(=O)c1sccc1-2 [Example 37, methyl 5,6-dihydro-5-methyl-6-oxo-4H-imidazo[1,5-a]thieno[2,3-f][1,4]diazepine-3-carboxylate] | – | 0.83 | IC50 [1, 7]: 0.0012 µM
24 | N#Cc1ncn2c1[C@@H]1CCCN1C(=O)c1ccccc1-2 [Example 42, (S)-11,12,13,13a-tetrahydro-9-oxo-9H-imidazo[1,5-a]pyrrolo[2,1-c][1,4]benzodiazepine-1-carbonitrile] | 31 | 12.1 | –
25 | CN1C(=O)CN=C(c2ccccc2)c2cc(Cl)ccc21 [diazepam, reference compound] | – | – | protection from spasmodic seizures in the pentetrazole test ([2]; diazepam 5 mg/kg i.p., more than 900 mice): protected all experimental animals from spasmodic seizures; falling asleep / rousing reflex ([4]; diazepam 5 mg/kg i.v.): fall asleep immediately, no longer show rousing reflex; sleep in the lateral position, duration ([4]; diazepam 5 mg/kg i.v.): at least 60 minutes; time to slowly wake up ([4]; diazepam 5 mg/kg i.v.): about 1.5 hours; falling asleep ([4]; diazepam 10 mg/kg i.p.): fall asleep within a few minutes; sleep duration ([4]; diazepam 10 mg/kg i.p.): 2 to 3 h
